Test system: MV-4-11 cells
Experiment: Gene expression microarray analysis (Affymetrix PrimeView) and GSEA
Assay type: cell-based, human
Parameters: RFU PODN (11730768_x_at) / Fold change /veh PODN (11730768_x_at) / RFU LINC00158 (11744669_a_at) / Fold change /veh LINC00158 (11744669_a_at) / RFU DUSP10 (11751237_a_at) / Fold change /veh DUSP10 (11751237_a_at) / RFU ID3 (11757404_x_at) / Fold change /veh ID3 (11757404_x_at) / RFU PLEKHG5 (11737974_s_at) / Fold change /veh PLEKHG5 (11737974_s_at) / RFU LRRC4B (11730491_at) / Fold change /veh LRRC4B (11730491_at) / RFU GIMAP4 (11747438_a_at) / Fold change /veh GIMAP4 (11747438_a_at) / RFU KRT8 (11758183_x_at) / Fold change /veh KRT8 (11758183_x_at) / RFU CNN1 (11734310_a_at) / Fold change /veh CNN1 (11734310_a_at) / RFU VPS37D (11726825_at) / Fold change /veh VPS37D (11726825_at) / RFU C10orf10 (11716522_x_at) / Fold change /veh C10orf10 (11716522_x_at) / RFU KIR2DL2 /// KIR2DL4 /// KIR2DL5A /// KIR2DL5B /// KIR2DS1 /// KIR2DS2 /// KIR2DS3 /// KIR2DS4 /// KIR3DL3 /// KIR3DL3 /// KIR3DS1 (11738374_at) / Fold change /veh KIR2DL2 /// KIR2DL4 /// KIR2DL5A /// KIR2DL5B /// KIR2DS1 /// KIR2DS2 /// KIR2DS3 /// KIR2DS4 /// KIR3DL3 /// KIR3DL3 /// KIR3DS1 (11738374_at) / RFU C1QL1 (11718748_at) / Fold change /veh C1QL1 (11718748_at) / RFU TMPRSS4 (11747572_a_at) / Fold change /veh TMPRSS4 (11747572_a_at) / RFU HAMP (11756126_x_at) / Fold change /veh HAMP (11756126_x_at) / RFU RNFT2 (11725882_a_at) / Fold change /veh RNFT2 (11725882_a_at) / RFU NR4A2 (11747474_a_at) / Fold change /veh NR4A2 (11747474_a_at) / RFU ABCC12 (11746883_a_at) / Fold change /veh ABCC12 (11746883_a_at) / RFU TMEM136 (11760407_x_at) / Fold change /veh TMEM136 (11760407_x_at) / RFU CLDN22 /// WWC2 (11732394_at) / Fold change /veh CLDN22 /// WWC2 (11732394_at) / RFU HLA-DPB1 (11760878_x_at) / Fold change /veh HLA-DPB1 (11760878_x_at) / RFU SPINT1 (11716480_a_at) / Fold change /veh SPINT1 (11716480_a_at) / RFU GAP43 (11754022_s_at) / Fold change /veh GAP43 (11754022_s_at) / RFU A4GNT (11735810_at) / Fold change /veh A4GNT (11735810_at) / RFU PRB3 (11715151_x_at) / Fold change /veh PRB3 (11715151_x_at) / RFU TUBB4B (11761932_at) / Fold change /veh TUBB4B (11761932_at) / RFU CAPN14 (11732068_a_at) / Fold change /veh CAPN14 (11732068_a_at) / RFU TMCC2 (11721928_a_at) / Fold change /veh TMCC2 (11721928_a_at) / RFU IRGQ (11745062_a_at) / Fold change /veh IRGQ (11745062_a_at) / RFU FAM174B (11720279_a_at) / Fold change /veh FAM174B (11720279_a_at) / RFU TMPRSS4 (11748680_a_at) / Fold change /veh TMPRSS4 (11748680_a_at) / RFU FAM212B (11763350_a_at) / Fold change /veh FAM212B (11763350_a_at) / RFU PLEKHG5 (11743358_a_at) / Fold change /veh PLEKHG5 (11743358_a_at) / RFU ZSCAN30 (11745921_a_at) / Fold change /veh ZSCAN30 (11745921_a_at) / RFU CMKLR1 (11741424_a_at) / Fold change /veh CMKLR1 (11741424_a_at) / RFU LOC101060620 /// MAPK8IP1 (11723275_at) / Fold change /veh LOC101060620 /// MAPK8IP1 (11723275_at) / RFU SPTSSB (11747773_x_at) / Fold change /veh SPTSSB (11747773_x_at) / RFU PRSS12 (11739890_at) / Fold change /veh PRSS12 (11739890_at) / RFU BIN1 (11741810_x_at) / Fold change /veh BIN1 (11741810_x_at) / RFU WNT11 (11732464_a_at) / Fold change /veh WNT11 (11732464_a_at) / RFU C10orf10 (11716521_a_at) / Fold change /veh C10orf10 (11716521_a_at) / RFU C5orf56 (11738089_at) / Fold change /veh C5orf56 (11738089_at) / RFU CYB561 (11721691_x_at) / Fold change /veh CYB561 (11721691_x_at) / RFU ANKRD19P (11752326_a_at) / Fold change /veh ANKRD19P (11752326_a_at) / RFU OR2T12 /// OR2T33 /// OR2T8 (11738714_s_at) / Fold change /veh OR2T12 /// OR2T33 /// OR2T8 (11738714_s_at) / RFU VCAN (11748164_a_at) / Fold change /veh VCAN (11748164_a_at) / RFU JSRP1 (11732532_at) / Fold change /veh JSRP1 (11732532_at) / RFU KRTAP10-11 (11738290_x_at) / Fold change /veh KRTAP10-11 (11738290_x_at) / RFU MYO3A (11730013_a_at) / Fold change /veh MYO3A (11730013_a_at) / RFU EBF3 (11725865_a_at) / Fold change /veh EBF3 (11725865_a_at) / RFU CAMK2N1 (11719241_x_at) / Fold change /veh CAMK2N1 (11719241_x_at) / RFU C5orf56 (11738088_a_at) / Fold change /veh C5orf56 (11738088_a_at) / RFU OLFML3 (11715873_a_at) / Fold change /veh OLFML3 (11715873_a_at) / RFU LOC100653217 /// NTM (11731650_a_at) / Fold change /veh LOC100653217 /// NTM (11731650_a_at) / RFU MAPK11 (11762145_a_at) / Fold change /veh MAPK11 (11762145_a_at) / RFU FIZ1 (11724087_x_at) / Fold change /veh FIZ1 (11724087_x_at) / RFU OASL (11726364_x_at) / Fold change /veh OASL (11726364_x_at) / RFU SOX15 (11748057_x_at) / Fold change /veh SOX15 (11748057_x_at) / RFU CD79A (11719716_a_at) / Fold change /veh CD79A (11719716_a_at) / RFU HIST1H1D (11736915_at) / Fold change /veh HIST1H1D (11736915_at) / RFU CASKIN2 (11723855_a_at) / Fold change /veh CASKIN2 (11723855_a_at) / RFU LOC730098 (11760151_x_at) / Fold change /veh LOC730098 (11760151_x_at) / RFU OR4N2 (11742367_at) / Fold change /veh OR4N2 (11742367_at) / RFU PRRT2 (11749266_a_at) / Fold change /veh PRRT2 (11749266_a_at) / RFU SNX32 (11753110_a_at) / Fold change /veh SNX32 (11753110_a_at) / RFU CDHR5 (11726645_a_at) / Fold change /veh CDHR5 (11726645_a_at) / RFU RCAN1 (11760418_a_at) / Fold change /veh RCAN1 (11760418_a_at) / RFU FAM167A (11723789_a_at) / Fold change /veh FAM167A (11723789_a_at) / RFU FAM26E (11764081_at) / Fold change /veh FAM26E (11764081_at) / RFU ISYNA1 (11749810_s_at) / Fold change /veh ISYNA1 (11749810_s_at) / RFU ACY1 (11761880_at) / Fold change /veh ACY1 (11761880_at) / RFU 11764098_at / Fold change /veh 11764098_at / RFU SAMD14 (11745864_x_at) / Fold change /veh SAMD14 (11745864_x_at) / RFU NPB (11741838_a_at) / Fold change /veh NPB (11741838_a_at) / RFU TMPRSS6 (11731388_a_at) / Fold change /veh TMPRSS6 (11731388_a_at) / RFU KRTAP10-2 (11738614_at) / Fold change /veh KRTAP10-2 (11738614_at) / RFU ARHGAP8 /// PRR5-ARHGAP8 (11727945_x_at) / Fold change /veh ARHGAP8 /// PRR5-ARHGAP8 (11727945_x_at) / RFU KRTAP5-7 /// NADSYN1 (11734609_at) / Fold change /veh KRTAP5-7 /// NADSYN1 (11734609_at) / RFU RASL12 (11751679_a_at) / Fold change /veh RASL12 (11751679_a_at) / RFU CDKN2B (11736163_a_at) / Fold change /veh CDKN2B (11736163_a_at) / RFU PRF1 (11729649_at) / Fold change /veh PRF1 (11729649_at) / RFU, ZNF638 /// ZNF638-IT1 / Fold change vs veh, ZNF638 /// ZNF638-IT1 / RFU, PANK3 / Fold change vs veh, PANK3 / RFU, SH3YL1 / Fold change vs veh, SH3YL1 / RFU, ZEB2 / Fold change vs veh, ZEB2 / RFU, NRIP1 / Fold change vs veh, NRIP1 / RFU, PTTG1IP / Fold change vs veh, PTTG1IP / RFU, CAPN2 / Fold change vs veh, CAPN2 / RFU, MED14 / Fold change vs veh, MED14 / RFU, SNORA58 / Fold change vs veh, SNORA58 / RFU, C1orf63 / Fold change vs veh, C1orf63 / RFU, LRRFIP1 / Fold change vs veh, LRRFIP1 / RFU, NDUFAF7 / Fold change vs veh, NDUFAF7 / RFU, SLC12A2 / Fold change vs veh, SLC12A2 / RFU, IBTK / Fold change vs veh, IBTK / RFU, ESF1 / Fold change vs veh, ESF1 / Fold change vs veh, TMEM50B / RFU, TAOK1 / Fold change vs veh, TAOK1 / RFU, ACBD3 / Fold change vs veh, ACBD3 / RFU, TMA16 / Fold change vs veh, TMA16 / RFU, RWDD3 / Fold change vs veh, RWDD3 / RFU, BCAT1 / Fold change vs veh, BCAT1 / RFU, EDEM3 / Fold change vs veh, EDEM3 / RFU, TMEM33 / Fold change vs veh, TMEM33 / RFU, WDR75 / Fold change vs veh, WDR75 / RFU, AHCTF1 / Fold change vs veh, AHCTF1 / RFU, TFRC / Fold change vs veh, TFRC / RFU, ZDHHC17 / Fold change vs veh, ZDHHC17 / RFU, NOM1 / Fold change vs veh, NOM1 / RFU, ARL8B / Fold change vs veh, ARL8B / RFU, ZBTB11 / Fold change vs veh, ZBTB11 / RFU, TAMM41 / Fold change vs veh, TAMM41 / RFU, KIAA1704 /// LOC100996395 / Fold change vs veh, KIAA1704 /// LOC100996395 / RFU, ING1 / Fold change vs veh, ING1 / RFU, TRMT61B / Fold change vs veh, TRMT61B / RFU, FUBP3 / Fold change vs veh, FUBP3 / RFU, TP53 / Fold change vs veh, TP53 / RFU, TNKS2 / Fold change vs veh, TNKS2 / RFU, ZFP14 / Fold change vs veh, ZFP14 / RFU, ACTR2 / Fold change vs veh, ACTR2 / RFU, PPP3R1 / Fold change vs veh, PPP3R1 / RFU, PIK3R1 / Fold change vs veh, PIK3R1 / RFU, HNRNPA1 / Fold change vs veh, HNRNPA1 / RFU, RNF170 / Fold change vs veh, RNF170 / RFU, ZNF28 / Fold change vs veh, ZNF28 / RFU, RNGTT / Fold change vs veh, RNGTT / RFU, OGT / Fold change vs veh, OGT / RFU, BRD1 / Fold change vs veh, BRD1 / RFU, MARS / Fold change vs veh, MARS / RFU, ZNF655 / Fold change vs veh, ZNF655 / RFU, FAHD1 / Fold change vs veh, FAHD1 / RFU, BDP1 / Fold change vs veh, BDP1 / RFU, LRRCC1 / Fold change vs veh, LRRCC1 / RFU, ARID1A / Fold change vs veh, ARID1A / RFU, ZNF146 / Fold change vs veh, ZNF146 / RFU, ZNF330 / Fold change vs veh, ZNF330 / RFU, GPN3 / Fold change vs veh, GPN3 / RFU, C9orf123 / Fold change vs veh, C9orf123 / RFU, N4BP2L2 / Fold change vs veh, N4BP2L2 / RFU, ARFIP1 / Fold change vs veh, ARFIP1 / RFU, FAM179B / Fold change vs veh, FAM179B / RFU, BCL10 / Fold change vs veh, BCL10 / RFU, UHRF1BP1L / Fold change vs veh, UHRF1BP1L / RFU, BET1 / Fold change vs veh, BET1 / RFU, CNOT2 / Fold change vs veh, CNOT2 / RFU, ZNF268 / Fold change vs veh, ZNF268 / Fold change vs veh, ZNF507 / RFU, DGCR2 / Fold change vs veh, DGCR2 / RFU, WDSUB1 / Fold change vs veh, WDSUB1 / Fold change vs veh, HSP90B1 /// MIR3652 / RFU, ADSS / Fold change vs veh, ADSS / RFU, GK / Fold change vs veh, GK / RFU, ZNF148 / Fold change vs veh, ZNF148 / RFU, TAF9 / Fold change vs veh, TAF9 / RFU, SLC1A5 / Fold change vs veh, SLC1A5 / RFU, SLMO2 / Fold change vs veh, SLMO2 / RFU, ABCC4 / Fold change vs veh, ABCC4 / RFU, LOC101060439 /// RAP1B / Fold change vs veh, LOC101060439 /// RAP1B / RFU, RFX7 / Fold change vs veh, RFX7 / RFU, GTPBP10 / Fold change vs veh, GTPBP10 / RFU, CNEP1R1 / Fold change vs veh, CNEP1R1 / RFU, BIVM-ERCC5 /// ERCC5 / Fold change vs veh, BIVM-ERCC5 /// ERCC5 / RFU, ILF3 / Fold change vs veh, ILF3 / RFU 11762660_at / Fold change /veh 11762660_at / RFU VCAN (11757783_s_at) / Fold change /veh VCAN (11757783_s_at) / RFU DDX43 (11728927_at) / Fold change /veh DDX43 (11728927_at) / RFU KRT8 (11758188_x_at) / Fold change /veh KRT8 (11758188_x_at) / RFU NKD1 (11759106_at) / Fold change /veh NKD1 (11759106_at) / RFU SRD5A1 (11742802_a_at) / Fold change /veh SRD5A1 (11742802_a_at) / RFU TPSAB1 /// TPSB2 (11721975_s_at) / Fold change /veh TPSAB1 /// TPSB2 (11721975_s_at) / RFU GSTM3 (11746129_a_at) / Fold change /veh GSTM3 (11746129_a_at) / RFU IL23R (11737362_x_at) / Fold change /veh IL23R (11737362_x_at) / RFU TMEM51 (11727254_a_at) / Fold change /veh TMEM51 (11727254_a_at) / RFU PIWIL2 (11732686_x_at) / Fold change /veh PIWIL2 (11732686_x_at) / RFU ORM1 (11744905_x_at) / Fold change /veh ORM1 (11744905_x_at) / RFU CCDC152 (11743942_at) / Fold change /veh CCDC152 (11743942_at) / RFU ECM1 (11717891_a_at) / Fold change /veh ECM1 (11717891_a_at) / RFU IL23R (11748794_a_at) / Fold change /veh IL23R (11748794_a_at) / RFU TNFAIP8L3 (11732012_x_at) / Fold change /veh TNFAIP8L3 (11732012_x_at) / RFU MBOAT4 (11741988_at) / Fold change /veh MBOAT4 (11741988_at) / RFU 11764193_at / Fold change /veh 11764193_at / RFU TMEM53 (11763286_at) / Fold change /veh TMEM53 (11763286_at) / RFU MAGEB2 (11727129_at) / Fold change /veh MAGEB2 (11727129_at) / RFU TMEM200A (11744735_a_at) / Fold change /veh TMEM200A (11744735_a_at) / RFU CCDC152 (11751479_a_at) / Fold change /veh CCDC152 (11751479_a_at) / RFU FAM211A (11726209_a_at) / Fold change /veh FAM211A (11726209_a_at) / RFU RGS16 (11746705_a_at) / Fold change /veh RGS16 (11746705_a_at) / RFU VCAN (11755009_s_at) / Fold change /veh VCAN (11755009_s_at) / RFU RHOB (11743442_s_at) / Fold change /veh RHOB (11743442_s_at) / RFU RGS16 (11720943_a_at) / Fold change /veh RGS16 (11720943_a_at) / RFU RGS16 (11720944_at) / Fold change /veh RGS16 (11720944_at) / RFU, VPS4B / Fold change vs veh, VPS4B / RFU, CREB1 / Fold change vs veh, CREB1 / RFU, DNAJC13 / Fold change vs veh, DNAJC13 / RFU, GNAQ / Fold change vs veh, GNAQ / RFU, CDK5R1 / Fold change vs veh, CDK5R1 / RFU, ZRANB3 / Fold change vs veh, ZRANB3 / RFU, CUL4A / Fold change vs veh, CUL4A / RFU, CCNY / Fold change vs veh, CCNY / RFU, UFL1 / Fold change vs veh, UFL1 / RFU, COG3 / Fold change vs veh, COG3 / RFU, DIAPH2 / Fold change vs veh, DIAPH2 / RFU, SKA2 / Fold change vs veh, SKA2 / RFU, AFF3 / Fold change vs veh, AFF3 / RFU, LMF1 / Fold change vs veh, LMF1 / RFU, IPO11 / Fold change vs veh, IPO11 / RFU, DFFB / Fold change vs veh, DFFB / RFU, FOXP1 / Fold change vs veh, FOXP1 / RFU, CARD8 / Fold change vs veh, CARD8 / RFU, STRN3 / Fold change vs veh, STRN3 / RFU, ADK / Fold change vs veh, ADK / RFU, RASSF2 / Fold change vs veh, RASSF2 / RFU, WIPF1 / Fold change vs veh, WIPF1 / RFU, LARP1B / Fold change vs veh, LARP1B / RFU, RASA1 / Fold change vs veh, RASA1 / RFU, RB1 / Fold change vs veh, RB1 / RFU, PPFIA1 / Fold change vs veh, PPFIA1 / RFU, MAT2A / Fold change vs veh, MAT2A / RFU, CCT5 / Fold change vs veh, CCT5 / RFU, WDR92 / Fold change vs veh, WDR92 / RFU, CUX1 / Fold change vs veh, CUX1 / RFU, TTC7A / Fold change vs veh, TTC7A / RFU, TMEM135 / Fold change vs veh, TMEM135 / RFU, DEPTOR / Fold change vs veh, DEPTOR / RFU, CPM / Fold change vs veh, CPM / RFU, DNAJB6 / Fold change vs veh, DNAJB6 / RFU, CACNA2D3 / Fold change vs veh, CACNA2D3 / RFU, DTX4 / Fold change vs veh, DTX4 / RFU, TFCP2 / Fold change vs veh, TFCP2 / RFU, GMCL1 /// GMCL1P1 / Fold change vs veh, GMCL1 /// GMCL1P1 / RFU, AEBP2 / Fold change vs veh, AEBP2 / RFU, SNHG1 /// SNORD22 /// SNORD25 /// SNORD26 /// SNORD27 /// SNORD28 /// SNORD29 /// SNORD31 / Fold change vs veh, SNHG1 /// SNORD22 /// SNORD25 /// SNORD26 /// SNORD27 /// SNORD28 /// SNORD29 /// SNORD31 / Fold change (Aza/veh), C12orf56 (ProbeSet 11735607_a_at) / Fold change (ACY-1035/veh), C12orf56 (ProbeSet 11735607_a_at) / Fold change (Aza/veh), FGFR1OP (ProbeSet 11751329_s_at) / Fold change (ACY-1035/veh), FGFR1OP (ProbeSet 11751329_s_at) / Fold change (Aza/veh), VPS36 (ProbeSet 11739960_a_at) / Fold change (ACY-1035/veh), VPS36 (ProbeSet 11739960_a_at) / RFU SYPL1 (11715823_x_at) / Fold change /veh SYPL1 (11715823_x_at) / RFU IGFBP7 (11715501_s_at) / Fold change /veh IGFBP7 (11715501_s_at) / RFU REEP3 (11722064_at) / Fold change /veh REEP3 (11722064_at) / RFU IGLL1 (11728026_x_at) / Fold change /veh IGLL1 (11728026_x_at): dose or concentration left out as unconfirmed
Conditions: ProbeSet 11752001_a_at; LIST D

## Nc1ncn([C@@H]2O[C@H](CO)[C@@H](O)[C@H]2O)c(=O)n1 [azacitidine]
  Fold change vs veh, CUL4A: 0.81

— paper PMC5218480 (PLoS ONE, 2017)
